Source: US20240197869A1, “HYPERACTIVATORS OF MAMMALIAN DENDRITIC CELLS” (Corner Therapeutics, Inc., priority 2021, published 2024)

Tests used:
human moDC = assay: IL-1β secretion by human moDC with surfactant formulations of 22:0 Lyso PC; type: cell-based
Method: Formulation of 22:0 Lyso PC with poloxamers. […] 22:0 Lyso PC was resuspended in the surfactant solution and agitated at 4° C. for an hour. Solutions were then brought to room temperature to form micelles. Using 10× concentrated PBS, salts were added to the solution to stabilize molecular interactions and provide physiologically relevant osmolarity. Lipid solutions were either left unfiltered or filtered through a pore size of 0.45 um to remove insoluble lipid flakes. Lipids were further diluted and added onto human moDC cell cultures along with 1 ug/mL R848. Targeted lipid concentrations were based on the scenario where the lipid is fully bio-available prior to filtration. However, filtration of insoluble lipid reduces the bio-available supply of lipid. Thus, IL-1beta as a measure of hyperactivity can be used as an indicator of 22:0 Lyso PC incorporation into micelles and thus into solution. One day after hyperactivation, cell culture supernatants are collected to measure cytokine secretion, and cells are used to measure viability via Cell Titer-Glo.
Salts are added to the solution to stabilize the molecular interactions and bring the solution to a physiologically relevant osmolarity. The solutions are then either left unfiltered or filtered through a pore size of 0.45 um to remove insoluble lipid flakes or particle aggregates. Lipids are then added to human moDC cultures with 1 ug/mL R848. One day after hyperactivation, cell culture supernatants were collected to measure cytokine secretion, and cells were used to measure cell viability.
Data from these studies in poloxamer formulation are shown from one human moDC donor sample. Individual data points represent the mean of triplicates.

[1] = system: murine, FLT3L-differentiated DC; assay: Antigen uptake and presentation assay; type: cell-based, mouse
Method: Antigen uptake and presentation assay. To examine antigen uptake and the endocytic ability of BMDCs, pHrodo™ Red Dextran 10,000 MW was used (ThermoFisher). Briefly, FLT3L-derived BMDCs previously cultured with media alone, or treated for 24 hours with R848 alone or in combination with 22:0 Lyso PC, were incubated with pHrodo™ Red Dextran (40 ug/ml) for 45 minutes at 37° C., or at 4° C. (as a control for surface binding of the antigen). BMDCs were then washed and stained with Live/Dead Fixable Violet dye (ThermoFisher) to distinguish living cells from dead cells. Cells were then fixed with BD fixation solution and resuspended in MACS buffer. Red (APC) fluorescence of live cells was measured by flow cytometry. Fluorescence values of BMDCs incubated at 37° C. were reported as Mean Fluorescence Intensity (MFI) of pHrodo™ Red Dextran associated cells as normalized to MFI of pHrodo™ Red Dextran associated cells incubated at 4° C. To measure the efficiency of OVA peptide presentation on MHC-I, FLT3L-BMDCs were treated as described above and incubated with Endofit-OVA protein (0.5 mg/ml) for 1 hour at 37° C. […] The percentage of cells associated with the OVA peptide on MHC-I was calculated by flow cytometry. Data were acquired on a Symphony A3 flow cytometer (Becton-Dickenson) and analyzed with FlowJo software (Becton-Dickenson). […]

[2] = system: murine, FLT3L-differentiated DC; assay: Cytokine secretion by murine FLT3L-differentiated BMDC (ELISA); type: cell-based, mouse
Method: Murine FLT3L-differentiated, bone marrow-derived DC (BMDC) generation. Leg femur and tibia were removed from mice, cut with scissors and flushed into sterile tubes. Bone marrow suspension was treated with ACK for 1 minute, then passed through a 40 um cell strainer. Cells were counted and resuspended in media consisting of complete IMDM containing 10% FBS, penicillin and streptomycin, and supplements of L-glutamine and sodium pyruvate (I10). Cells were then plated at 5E6 bone marrow cells per well in a P12 plate. Recombinant mouse FLT3L (Miltenyi) was added to cultures at 200 ng/mL. Differentiated cells were used for subsequent assays on day 9. The efficiency of differentiation was monitored by flow cytometry using BD Symphony A3, and CD11c+MHC-II+ cells were routinely above 80% of living cells. For each experiment, five mice were used to collect BM and to generate DCs.
Murine FLT3L-differentiated BMDC (FLT3L-BMDC) hyperactivation. BMDCs were washed with PBS and re-plated in FLT3L-containing 110 at a concentration of 1.5×10^5 cells/well. Stimuli were added to cultures at indicated concentrations for a final volume of 200 uL/well. Twenty-four hours post-stimulation, cell culture supernatant was collected after centrifugation and stored at −20° C. to measure cytokine secretion. IL-1b, IL-6, IL-12p40, and TNF-alpha ELISA were performed using eBioscience Ready-SET-Go! (now ThermoFisher) ELISA kits according to the manufacturer's protocols. Cell viability was measured using Promega's Cell Titer-Glo reagent kits.

[3] = Solubility of 22:0 Lyso PC (observation); type: physicochemical
human PBMCs = assay: Viability of human PBMCs (CellTiter-Glo); type: cell-based; settings: 2 days post-activation; lipids combined with R848
Method: Isolation of PBMCs from Whole Blood. PBMCs were isolated from whole blood using density gradient centrifugation with Ficoll-Paque PLUS (Cytivia). Whole blood was diluted 1:1 with PBS, layered on top of Ficoll-Paque PLUS and centrifuged at 1000×g for 30 minutes at room temperature. PBMCs were collected, washed twice in PBS, and incubated with Ack lysis buffer (Lonza) to remove any remaining red blood cells.
Cell Culture and Stimulation. […] Cells were plated at 1×10^5 (canine cells) or 1×10^6 (human cells) per well in 96-well flat bottom tissue culture plates. Lyophilized Vaccigrade R848 (Invivogen) was reconstituted and diluted according to manufacturer's recommendations and added to cells at a final concentration of 1 μg/mL.
Quantification of Cell Viability.

[4] = R848 + 41 uM lipid in PBS or KP407, 24 h

Structure (SMILES): CCCCCCCCCCCCCCCCCCCCCC(=O)OC[C@@H](O)COP(=O)([O-])OCC[N+](C)(C)C [22:0 LYSO PC, 1-behenoyl-2-hydroxy-sn-glycero-3-phosphocholine]
- IL-1beta secretion, effect of 0.45 um filtration (in words) (human moDC; filtered vs unfiltered lipid + R848): significantly decreased the IL-1beta secreted by moDC
- IL-1beta secretion (in words) (human moDC; methanol or ethanol solvent evaporation with KP407, filtered, target 82.5 uM + R848): further increased
- IL-1beta secretion (in words) (human moDC; mixed with KP407 (5% in PBS), 0.45 um filtered, target 82.5 uM + R848): increased IL-1beta secretion
- IL-1beta secretion (in words) (human moDC; not incorporated into KP407 micelles, 0.45 um filtered, target 82.5 uM + R848): minimal amounts of IL-1beta
- IL-1beta secretion (in words) (human moDC; surfactant formulations left unfiltered + R848): high IL-1beta secretion
- OVA antigen processing and cross-presentation on MHC-I (in words) ([1]; R848 + lipid): did not interfere with these functions
- antigen uptake (Red pHrodo dextran) (in words) ([1]; R848 with vs without lipid, 24 h): does not compromise the antigen uptake capacity of DCs
- IL-1beta secretion (in words) ([2]; 22:0 Lyso PC without R848): failed to induce IL-1beta secretion
- IL-6 secretion (in words) [2, 4]: high TNF-alpha and IL-6 secretion
- TNF-alpha secretion (in words) [2, 4]: high TNF-alpha and IL-6 secretion
- TNF-alpha secretion (in words) ([2]; R848 + lipid in KP407): small boost in TNF-alpha secretion
- lipid concentration superior in supporting IL-1beta secretion while retaining cell viability ([2]; formulated in KP407 + R848): 41 µM
- IL-1beta secretion (in words) ([2]; lipid formulated in 5% KP407 + R848 1 ug/mL, 24 h): induced IL-1beta secretion in a dose dependent manner
- IL-1beta secretion (in words) ([2]; lipid resuspended in PBS, different concentrations, + R848 1 ug/mL, 24 h): unable to induce IL-1beta secretion
- solubility in aqueous solution (in words) [3]: mostly insoluble in aqueous solution
- solubility in alcohols (in words) ([3]; ethanol or methanol): soluble in ethanol or methanol
- human PBMC viability (in words) (human PBMCs): remain viable
